# Experimental data reported in US20090035306A1 (KALYPSYS, INC., priority 2006, published 2009).
# Target: T1, human TGR5 (Homo sapiens, UniProt Q8TDU6)
# T1 construct: expressed in transfected cells
# T1 sequence (Q8TDU6 1-330): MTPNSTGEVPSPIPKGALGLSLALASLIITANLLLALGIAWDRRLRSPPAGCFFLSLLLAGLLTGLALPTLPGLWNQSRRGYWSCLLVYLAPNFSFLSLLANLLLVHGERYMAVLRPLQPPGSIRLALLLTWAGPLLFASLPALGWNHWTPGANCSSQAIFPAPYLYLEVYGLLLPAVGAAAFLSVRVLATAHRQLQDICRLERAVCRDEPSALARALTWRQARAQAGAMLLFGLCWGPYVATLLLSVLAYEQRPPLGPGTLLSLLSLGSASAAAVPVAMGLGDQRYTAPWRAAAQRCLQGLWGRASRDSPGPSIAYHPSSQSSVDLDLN
# Assay: cAMP production assay in HEK293 cells stably expressing TGR5 (LANCE TR-FRET)
# Assay type: cell-based
# Conditions: 30 minutes stimulation, read-out: cAMP Production in 293-TGR5 Cells EC50
# Method: HEK293 cells stably expressing TGR5 (HEK293-TGR5) were established by stably transfecting HEK-293 cells with an expression vector (pcDNA 3.1, Invetrogen) inserted with human TGR5 cDNA using Fugene6 (Roche, Indianapolis, Ind.) according to conventional methods. Cells were grown in DMEM (invitrogen, Carlsbad, Calif.) supplemented with 10% FBS, 1% penicillin/streptomycin under geneticin selection. The presence of TGR5 transcripts in these cells was confirmed using branched DNA (bDNA, Genospectra, Inc., Fremont Calif.) following the manufacturer's protocol and using specific probes for human TGR5. cAMP production assay was performed in high throughput 1536 well format using LANCE cAMP detection kit (Perkin Elmer Inc., Boston, Mass.) according to the manufacturer's protocol. Briefly, HEK293-TGR5 cells were harvested using non-enzymatic cell dissociation buffer (Invitrogen, Carlsbad, Calif.) and suspended in DMEM supplemented with 0.1% FBS at a density of 800,000 cells/ml. Alexa antibody was added to the cell suspension, and 4 ul of the mixture was dispensed in white opaque tissue culture treated Greiner 1536 well plates (USA Scientific, Inc., Ocala, Fla.). After an overnight incubation at 37 C in an atmosphere of 10% CO2 and 95% humidity, 1 ul of 5 mM IBMX (Sigma, St. Louis, Mo.) solution in DMEM was dispensed for a final concentration of 1 mM. Cells were then stimulated with test compounds for 30 minutes, after which time 5 ul of detection reagent was added and incubated for 1-7 hrs at room temperature. TR-FRET signal was detected using the Viewlux (Perkin Elmer Inc., Boston Mass.). EC50 values were determined using Graph Pad Prizm analysis (GraphPad Software, Inc). The EC50 values for a wide range of bile acids generated from this assay were in agreement with the values published in the scientific literature. […] The symbol (+) denotes an EC50 value of ≦10 μM while the symbol (−) denotes an EC50 value of >10 μM (see Table 1).
smiles,measurement,value
"O=c1c2ccccc2nc(-c2cccs2)n1NCc1ccc(C(F)(F)F)cc1 [Example 87, 2-(thiophen-2-yl)-3-(4-(trifluoromethyl)benzylamino)quinazolin-4(3H)-one]",EC50,≤ 10 µM
"COc1cc(-c2nc3ccccc3c(=O)n2NCc2ccc(Br)cc2)ccc1Cl [Example 74, 3-(4-Bromo-benzylamino)-2-(4-chloro-3-methoxy-phenyl)-3H-quinazolin-4-one]",EC50,≤ 10 µM
"O=c1c2ccccc2nc(-c2ccco2)n1N(Cc1ccc(Br)cc1)Cc1ccc(Br)cc1 [Example 41, 3-(bis(4-bromobenzyl)amino)-2-(furan-2-yl)quinazolin-4(3H)-one]",EC50,≤ 10 µM
"O=c1c2ccccc2nc(-c2ccccc2)n1NCc1ccc(Br)cc1 [Example 104, 3-(4-bromobenzylamino)-2-phenylquinazolin-4(3H)-one]",EC50,≤ 10 µM
"O=c1c2ccccc2nc(-c2ccc(F)cc2)n1NCCc1cccc(Br)c1 [Example 84, 3-(3-bromophenethylamino)-2-(4-fluorophenyl)quinazolin-4(3H)-one]",EC50,> 10 µM
"COc1cc(-c2nc3ccccc3c(=O)n2NCc2ccc(Br)cc2)ccc1C [Example 65, 3-(4-bromobenzylamino)-2-(3-methoxy-4-methylphenyl)quinazolin-4(3H)-one]",EC50,≤ 10 µM
"COc1cc(-c2nc3ccccc3c(=O)n2NCc2ccc(F)cc2)ccc1C [Example 67, 3-(4-fluorobenzylamino)-2-(3-methoxy-4-methylphenyl)quinazolin-4(3H)-one]",EC50,≤ 10 µM
"COc1cccc(-c2nc3ccccc3c(=O)n2NCc2ccc(Br)cc2)c1 [Example 55, 3-(4-bromobenzylamino)-2-(3-methoxyphenyl)quinazolin-4(3H)-one]",EC50,≤ 10 µM
"O=c1c2ccccc2nc(-c2ccccc2Cl)n1NCc1ccc(Br)cc1 [Example 10, 3-(4-bromobenzylamino)-2-(2-chlorophenyl)quinazolin-4(3H)-one]",EC50,≤ 10 µM
"O=c1c2ccccc2nc(-c2ccc3c(c2)OCO3)n1NCc1ccc(Br)cc1 [Example 63, 2-(benzo[d][1,3]dioxol-5-yl)-3-(4-bromobenzylamino)quinazolin-4(3H)-one]",EC50,≤ 10 µM
"O=c1c2ccccc2nc(-c2cccc(OC(F)(F)F)c2)n1NCc1ccc(Cl)cc1 [Example 61, 3-(4-chlorobenzylamino)-2-(3-(trifluoromethoxy)phenyl)quinazolin-4(3H)-one]",EC50,≤ 10 µM
"O=c1c2ccccc2nc(C2CCCCC2)n1NCc1ccc(Br)cc1 [Example 44, 3-(4-bromobenzylamino)-2-cyclohexylquinazolin-4(3H)-one]",EC50,≤ 10 µM
"O=c1c2ccccc2nc(-c2ccccc2F)n1NCc1ccc(F)c(F)c1 [Example 14, 3-(3,4-difluorobenzylamino)-2-(2-fluorophenyl)quinazolin-4(3H)-one]",EC50,≤ 10 µM
"Cc1cccc2nc(-c3ccc(F)cc3)n(NCc3ccc(Br)cc3)c(=O)c12 [Example 111, 3-(4-bromobenzylamino)-2-(4-fluorophenyl)-5-methylquinazolin-4(3H)-one]",EC50,≤ 10 µM
"O=c1c2ccc(O)cc2nc(-c2ccc(F)cc2)n1NCc1ccc(Br)cc1 [Example 95, 3-(4-bromobenzylamino)-2-(4-fluorophenyl)-7-hydroxy quinazolin-4(3H)-one]",EC50,≤ 10 µM
"CC(C)c1ccc(CNn2c(-c3ccc(F)cc3)nc3ccccc3c2=O)cc1 [Example 2, 2-(4-fluorophenyl)-3-(4-isopropylbenzylamino)quinazolin-4(3H)-one]",EC50,> 10 µM
"COc1cc(-c2nc3ccccc3c(=O)n2NCc2ccc(Br)cc2)ccc1F [Example 72, 3-(4-bromobenzylamino)-2-(4-fluoro-3-methoxyphenyl)quinazolin-4(3H)-one]",EC50,≤ 10 µM
"N#Cc1ccc(CNn2c(-c3ccc(F)cc3)nc3ccccc3c2=O)cc1 [Example 32, 4-((2-(4-fluorophenyl)-4-oxoquinazolin-3(4H)-ylamino)methyl)benzonitrile]",EC50,≤ 10 µM
"O=c1c2ccccc2nc(-c2cccc(Cl)c2)n1NCc1ccc(Br)cc1 [Example 46, 3-(4-bromobenzylamino)-2-(3-chlorophenyl)quinazolin-4(3H)-one]",EC50,≤ 10 µM
"O=c1c2ccccc2nc(-c2ccc(Cl)cc2)n1NCc1ccc(Cl)cc1 [Example 51, 3-(4-chlorobenzylamino)-2-(4-chlorophenyl)quinazolin-4(3H)-one]",EC50,≤ 10 µM
"O=c1c2ccccc2nc(-c2ccc(O)cc2)n1NCc1ccc(Br)cc1 [Example 97, 3-(4-bromobenzylamino)-2-(4-hydroxyphenyl)quinazolin-4(3H)-one]",EC50,≤ 10 µM
"CN(C)c1ccc(-c2nc3ccccc3c(=O)n2NCc2ccc(Br)cc2)cc1 [Example 42, 3-(4-bromobenzylamino)-2-(4-(dimethylamino)phenyl)quinazolin-4(3H)-one]",EC50,> 10 µM
"O=c1c2ccc(C(F)(F)F)cc2nc(-c2ccccc2F)n1NCc1ccc(Br)cc1 [Example 28, 3-(4-bromobenzylamino)-2-(2-fluorophenyl)-7-(trifluoromethyl)quinazolin-4(3H)-one]",EC50,> 10 µM
"COc1cc(-c2nc3ccccc3c(=O)n2NCc2ccc(F)c(F)c2)ccc1C [Example 69, 3-(3,4-difluorobenzylamino)-2-(3-methoxy-4-methylphenyl)quinazolin-4(3H)-one]",EC50,≤ 10 µM
"COc1ccc2nc(-c3ccccc3F)n(NCc3ccc(F)cc3F)c(=O)c2c1 [Example 27, 3-(2,4-difluorobenzylamino)-2-(2-fluorophenyl)-6-methoxy quinazolin-4(3H)-one]",EC50,≤ 10 µM
"COc1cc(-c2nc3ccccc3c(=O)n2NCc2ccc(Cl)cc2)ccc1O [Example 100, 3-(4-chlorobenzylamino)-2-(4-hydroxy-3-methoxyphenyl)quinazolin-4(3H)-one]",EC50,≤ 10 µM
"COc1cccc2c(=O)n(NCc3ccc(Br)cc3)c(-c3ccc(F)cc3)nc12 [Example 76, 3-(4-Bromo-benzylamino)-2-(4-fluoro-phenyl)-8-methoxy-3H-quinazolin-4-one]",EC50,≤ 10 µM
"O=c1c2ccccc2nc(-c2cccc(Cl)c2)n1NCc1ccc(C(F)(F)F)cc1 [Example 49, 2-(3-chlorophenyl)-3-(4-(trifluoromethyl)benzylamino)quinazolin-4(3H)-one]",EC50,≤ 10 µM
"COc1ccc(-c2nc3ccccc3c(=O)n2NCc2ccc(Br)cc2)cc1O [Example 118, 3-(4-bromobenzylamino)-2-(3-hydroxy-4-methoxyphenyl)quinazolin-4(3H)-one]",EC50,≤ 10 µM
"O=c1c2ccccc2nc(-c2ccc(F)cc2)n1NCc1cccnc1 [Example 37, 2-(4-fluorophenyl)-3-(pyridin-3-ylmethylamino)quinazolin-4(3H)-one]",EC50,> 10 µM
"O=c1c2ccccc2nc(-c2ccc(Cl)cc2)n1NCc1ccc(C(F)(F)F)cc1 [Example 52, 2-(4-chlorophenyl)-3-(4-(trifluoromethyl)benzylamino)quinazolin-4(3H)-one]",EC50,≤ 10 µM
"CC(C)(C)c1ccc(CNn2c(-c3ccccc3F)nc3ccccc3c2=O)cc1 [Example 11, 3-(4-tert-butylbenzylamino)-2-(2-fluorophenyl)quinazolin-4(3H)-one]",EC50,> 10 µM
"Cc1cccc2c(=O)n(NCc3ccc(Cl)cc3)c(-c3ccc(F)cc3)nc12 [Example 71, 3-(4-chlorobenzylamino)-2-(4-fluorophenyl)-8-methylquinazolin-4(3H)-one]",EC50,≤ 10 µM
"O=c1c2ccccc2nc(-c2ccccc2F)n1NCc1cccc(Br)c1 [Example 3, 3-(3-bromobenzylamino)-2-(2-fluorophenyl)quinazolin-4(3H)-one]",EC50,≤ 10 µM
O=c1c2c(F)cccc2nc(-c2ccc(F)cc2)n1NCc1ccc(Br)cc1 [Example 112],EC50,≤ 10 µM
"Cc1ccc2c(=O)n(NCc3ccc(C(F)(F)F)cc3)c(-c3ccc(F)cc3)nc2c1 [Example 82, 2-(4-fluorophenyl)-7-methyl-3-(4 (trifluoromethyl)benzylamino)quinazolin-4(3H)-one]",EC50,> 10 µM
"O=c1c2ccccc2nc(-c2ccc(C(F)(F)F)cc2)n1NCc1ccc(Br)cc1 [Example 9, 3-(4-bromobenzylamino)-2-(4-(trifluoromethyl)phenyl)quinazolin-4(3H)-one]",EC50,≤ 10 µM
"O=c1c2ccccc2nc(-c2cccc(F)c2)n1NCc1ccc(F)c(C(F)(F)F)c1 [Example 107, 3-(4-fluoro-3-(trifluoromethyl)benzylamino)-2-(3-fluorophenyl)quinazolin-4(3H)— one]",EC50,≤ 10 µM
